Reference: PubChem BioAssay AID256 (DTP/NCI, 2004)
Where “and” joins values, the source holds several entries; their conditions need not be identical. Equal values may be shown once. Inconclusive results and toxic doses are left out. Rule for the calls: active = survival T/C of 150% or more; inactive = T/C below 125% in these data.

System: CD2F1 mice, L1210 leukemia ip, survival T/C
Test: NCI In Vivo Anticancer Drug Screen. Data for tumor model L1210 Leukemia (intraperitoneal) in CD2F1 (CDF1) mice
Details: higher = longer survival
Procedure, shortened: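 Antitumor effect is scored in animals hosting a serially transplanted tumor. Values compare compound-dosed animals against vehicle-only controls as a simple quotient.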

[1] = endpoint: mean survival time, dose: 100.0 mg/kg/injection, schedule: Q01DX009 (ip), vehicle: saline with Tween-80
[2] = endpoint: mean survival time, dose: 100.0 mg/kg/injection, schedule: Q04DX003 (ip), vehicle: saline with Tween-80
[3] = endpoint: mean survival time, dose: 200.0 mg/kg/injection, schedule: Q01DX009 (ip), vehicle: saline with Tween-80
[4] = endpoint: mean survival time, dose: 200.0 mg/kg/injection, schedule: Q04DX003 (ip), vehicle: saline with Tween-80
[5] = endpoint: mean survival time, dose: 400.0 mg/kg/injection, schedule: Q01DX009 (ip), vehicle: saline with Tween-80
[6] = endpoint: mean survival time, dose: 400.0 mg/kg/injection, schedule: Q04DX003 (ip), vehicle: saline with Tween-80

Measured: T/C

CCCCCCCC(=O)Nc1ccc(-n2c(=O)cc(C)n2C)cc1
inactive: [1] 90 % of control | [2] 90 % of control | [3] 88 % of control | [4] 97 % of control | [5] 86 % of control | [6] 95 % of control

CCC[CH2][Sn]1([CH2]CCC)[O]C2C(CO)OC(n3cnc4c(N)ncnc43)C2[O]1 (configuration not stated)
inactive: endpoint: mean survival time, dose: 0.2 mg/kg/injection, schedule: Q01DX005 (ip), vehicle: other 107 % of control | endpoint: mean survival time, dose: 0.39 mg/kg/injection, schedule: Q01DX005 (ip), vehicle: other 104 % of control | endpoint: mean survival time, dose: 0.78 mg/kg/injection, schedule: Q01DX005 (ip), vehicle: other 104 % of control | endpoint: mean survival time, dose: 1.56 mg/kg/injection, schedule: Q01DX005 (ip), vehicle: other 102 % of control and 107 % of control | endpoint: mean survival time, dose: 3.13 mg/kg/injection, schedule: Q01DX005 (ip), vehicle: other 103 % of control and 110 % of control

Cc1sc2cc(N)ccc2[n+]1C
inactive: endpoint: mean survival time, dose: 12.5 mg/kg/injection, schedule: Q04DX002 (ip), vehicle: saline with Tween-80 102 % of control | endpoint: mean survival time, dose: 25.0 mg/kg/injection, schedule: Q04DX002 (ip), vehicle: saline with Tween-80 98 % of control | endpoint: mean survival time, dose: 50.0 mg/kg/injection, schedule: Q04DX002 (ip), vehicle: saline with Tween-80 95 % of control | endpoint: mean survival time, dose: 100.0 mg/kg/injection, schedule: Q04DX002 (ip), vehicle: saline with Tween-80 98 % of control | endpoint: mean survival time, dose: 200.0 mg/kg/injection, schedule: Q04DX002 (ip), vehicle: saline with Tween-80 109 % of control

COC(=O)c1cc(NC(C)=O)ccc1S(=O)(=O)c1ccc(NC(C)=O)cc1C(=O)OC
inactive: [2] 101 % of control | [4] 101 % of control | [6] 97 % of control

CC(=O)Nc1ccc2c(c1)Cc1ccccc1-2
inactive: [1] 101 % of control | [2] 87 % of control | [3] 95 % of control | [4] 101 % of control | [5] 101 % of control | [6] 90 % of control

O=c1[nH]cnc2c1ncn2C1OC(CO)C(O)C1O.O=c1[nH]cnc2c1ncn2C1OC(CO)C(O)C1O.[NH2-].[NH2-].[Pt+2] (configuration not stated)
inactive: endpoint: mean survival time, dose: 12.5 mg/kg/injection, schedule: Q01DX009 (ip), vehicle: saline with Tween-80 92 % of control | endpoint: mean survival time, dose: 25.0 mg/kg/injection, schedule: Q01DX009 (ip), vehicle: saline with Tween-80 96 % of control | endpoint: mean survival time, dose: 50.0 mg/kg/injection, schedule: Q01DX009 (ip), vehicle: saline with Tween-80 100 % of control | [1] 92 % of control | [3] 103 % of control

C(=N\Nc1nc2ccccc2s1)/c1ccc(/C=N/Nc2nc3ccccc3s2)cc1
inactive: endpoint: mean survival time, dose: 100.0 mg/kg/injection, schedule: Q04DX003 (ip), vehicle: Klucel (hydroxypropylcellulose) (HPC) 92 % of control | endpoint: mean survival time, dose: 200.0 mg/kg/injection, schedule: Q04DX003 (ip), vehicle: Klucel (hydroxypropylcellulose) (HPC) 92 % of control | endpoint: mean survival time, dose: 400.0 mg/kg/injection, schedule: Q04DX003 (ip), vehicle: Klucel (hydroxypropylcellulose) (HPC) 94 % of control

CC(Cl)CN(CC(C)Cl)c1ccc2c(c1)Cc1cc([N+](=O)[O-])ccc1-2 (configuration not stated)
inactive: [2] 93 % of control | [4] 96 % of control | [6] 96 % of control

O=c1nc(NC2CCCCCCCCCCC2)ccn1C1OC(CO)C(O)C1O (configuration not stated)
inactive: endpoint: median survival time, dose: 12.5 mg/kg/injection, schedule: Q01DX005 (ip), vehicle: distilled water + Tween-80 101 % of control | endpoint: median survival time, dose: 25.0 mg/kg/injection, schedule: Q01DX005 (ip), vehicle: distilled water + Tween-80 102 % of control | endpoint: median survival time, dose: 50.0 mg/kg/injection, schedule: Q01DX005 (ip), vehicle: distilled water + Tween-80 105 % of control | endpoint: median survival time, dose: 100.0 mg/kg/injection, schedule: Q01DX005 (ip), vehicle: distilled water + Tween-80 93 % of control | endpoint: median survival time, dose: 200.0 mg/kg/injection, schedule: Q01DX005 (ip), vehicle: distilled water + Tween-80 86 % of control

C1CCC2[N-]CCCC2C1.C1CCC2[N-]CCCC2C1.[Br][Pt+2][Br] (configuration not stated)
inactive: endpoint: median survival time, dose: 3.12 mg/kg/injection, schedule: Q04DX003 (ip), vehicle: saline 105 % of control | endpoint: median survival time, dose: 6.25 mg/kg/injection, schedule: Q04DX003 (ip), vehicle: saline 117 % of control | endpoint: median survival time, dose: 12.5 mg/kg/injection, schedule: Q04DX003 (ip), vehicle: saline 114 % of control | endpoint: median survival time, dose: 25.0 mg/kg/injection, schedule: Q04DX003 (ip), vehicle: saline 103 % of control | endpoint: median survival time, dose: 50.0 mg/kg/injection, schedule: Q04DX003 (ip), vehicle: saline 102 % of control | endpoint: median survival time, dose: 100.0 mg/kg/injection, schedule: Q04DX003 (ip), vehicle: saline 104 % of control | endpoint: median survival time, dose: 200.0 mg/kg/injection, schedule: Q04DX003 (ip), vehicle: saline 95 % of control

O=C1Cc2cc3c(cc2C=C2CCCN12)OCO3
inactive: endpoint: mean survival time, dose: 25.0 mg/kg/injection, schedule: Q01DX009 (ip), vehicle: water 103 % of control | endpoint: mean survival time, dose: 50.0 mg/kg/injection, schedule: Q01DX009 (ip), vehicle: water 97 % of control | endpoint: mean survival time, dose: 100.0 mg/kg/injection, schedule: Q01DX009 (ip), vehicle: water 103 % of control | endpoint: mean survival time, dose: 400.0 mg/kg/injection, schedule: Q01DX009 (ip), vehicle: water 113 % of control
